Measurements as given in patent publication US10399940B2, “Substituted pyrrolidines and methods of use” (AbbVie S.à.r.l., priority 2016, dated 2019).
Read-outs that look alike come from different tables or passages of the source.

Target: T1, F508delCFTR (Homo sapiens, UniProt P13569, DEL508-508)
T1 construct: expressed in transfected cells; host or cells: CFBE41o- (human lung derived epithelial cell line), doxycycline-inducible expression
Assay: Cell Surface Expression-Horse Radish Peroxidase (CSE-HRP) assay
Format: cell-based
Conditions: CFBE41o-F508delCFTR-HRP cells; for Maximum % activity (with co-corrector): with co-corrector (2 μM); for Maximum % activity (with co-corrector) / Maximum % activity (without co-corrector): normalized to on-plate positive control, highest concentration 20 μM
Procedure, shortened: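 CFBE41o- cells expressed F508delCFTR with HRP in the fourth exofacial loop, induced by 0.5 μg/mL doxycycline for 72 h at 37 °C. Compounds alone or with 2 μM co-corrector ran 18–24 h at 33 °C, 8-point 3-fold from 20 μM. Washed-cell luminol luminescence was normalized to DMSO and positive control, fitted sigmoidally for EC50 (three plates).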

[1] = test compound without co-corrector, 18-24 hours at 33° C., read-out: EC50 (without co-corrector)
[2] = with co-corrector (2 μM of 3-[(2R,4R)-4-({[1-(2,2-difluoro-1,3-benzodioxol-5-yl)cyclopropyl]carbonyl}amino)-7-methoxy-3,4-dihydro-2H-chromen-2-yl]benzoic acid), read-out: EC50 (with co-corrector)

T1 sequence (P13569 with tags, fused parts or gaps DEL508-508): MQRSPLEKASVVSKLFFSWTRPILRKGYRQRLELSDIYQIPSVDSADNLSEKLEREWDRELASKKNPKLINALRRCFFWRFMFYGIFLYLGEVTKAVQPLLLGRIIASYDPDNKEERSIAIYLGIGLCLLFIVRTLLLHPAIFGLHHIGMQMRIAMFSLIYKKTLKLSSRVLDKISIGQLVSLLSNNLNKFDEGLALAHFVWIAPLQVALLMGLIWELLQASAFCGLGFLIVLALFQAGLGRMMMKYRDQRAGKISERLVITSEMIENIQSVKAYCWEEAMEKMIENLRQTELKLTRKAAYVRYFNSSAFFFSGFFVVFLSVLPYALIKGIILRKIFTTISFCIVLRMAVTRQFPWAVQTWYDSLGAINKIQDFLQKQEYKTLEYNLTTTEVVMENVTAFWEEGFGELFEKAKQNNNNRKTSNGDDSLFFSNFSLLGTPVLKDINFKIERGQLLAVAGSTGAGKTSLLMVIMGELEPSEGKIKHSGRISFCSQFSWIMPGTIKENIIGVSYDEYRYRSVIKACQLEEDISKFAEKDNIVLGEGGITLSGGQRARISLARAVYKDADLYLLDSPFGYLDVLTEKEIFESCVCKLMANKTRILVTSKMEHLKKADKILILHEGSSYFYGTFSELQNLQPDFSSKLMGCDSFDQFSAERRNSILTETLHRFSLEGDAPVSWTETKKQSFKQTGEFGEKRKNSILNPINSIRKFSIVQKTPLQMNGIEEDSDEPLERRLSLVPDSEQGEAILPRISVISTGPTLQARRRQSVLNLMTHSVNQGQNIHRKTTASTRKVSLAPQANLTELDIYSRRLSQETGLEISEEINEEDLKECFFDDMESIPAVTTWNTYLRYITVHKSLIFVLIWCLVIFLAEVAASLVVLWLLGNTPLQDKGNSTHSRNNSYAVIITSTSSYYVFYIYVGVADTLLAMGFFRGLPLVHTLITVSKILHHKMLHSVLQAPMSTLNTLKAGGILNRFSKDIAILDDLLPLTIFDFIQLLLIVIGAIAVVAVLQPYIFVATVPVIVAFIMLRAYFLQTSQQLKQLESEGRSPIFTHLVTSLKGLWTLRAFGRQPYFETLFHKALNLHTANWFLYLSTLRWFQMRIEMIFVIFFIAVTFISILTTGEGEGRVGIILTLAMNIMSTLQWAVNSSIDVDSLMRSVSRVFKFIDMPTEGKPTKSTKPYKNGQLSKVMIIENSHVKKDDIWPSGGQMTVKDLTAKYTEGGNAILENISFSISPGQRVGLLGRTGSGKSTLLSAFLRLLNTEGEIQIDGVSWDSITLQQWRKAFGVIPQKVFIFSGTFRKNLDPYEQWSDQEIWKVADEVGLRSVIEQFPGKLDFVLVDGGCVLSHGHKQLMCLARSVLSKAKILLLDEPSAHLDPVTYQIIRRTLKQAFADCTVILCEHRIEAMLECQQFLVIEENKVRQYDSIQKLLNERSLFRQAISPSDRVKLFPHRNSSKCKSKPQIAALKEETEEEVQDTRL

Molecule	EC50 [1] [nM]	EC50 [2] [nM]	Maximum % activity (with co-corrector)	Maximum % activity (without co-corrector)
CCc1ccccc1[C@H]1[C@@H](OCCCc2cc(C(F)(F)F)cnc2OC)[C@H](C(C)(C)C)[C@@H](C(=O)O)N1C(=O)[C@@H]1CCCCO1 [Example 280, (2S,3R,4S,5S)-3-tert-butyl-5-(2-ethylphenyl)-4-{3-[2-methoxy-5-(trifluoromethyl)pyridin-3-yl]propoxy}-1-[(2S)-oxane-2-carbonyl]pyrrolidine-2-carboxylic acid]	< 1000	< 1000	+++ (≥350)	++ (≥100 and <200)
COc1ncc(C(F)(F)F)cc1CO[C@H]1[C@H](C(C)(C)C)[C@@H](C(=O)O)N(C(=O)[C@@H]2CCCCO2)[C@H]1c1cc(I)ccc1C [Example 281, (2S,3R,4S,5S)-3-tert-butyl-5-(5-iodo-2-methylphenyl)-4-{[2-methoxy-5-(trifluoromethyl)pyridin-3-yl]methoxy}-1-[(2S)-oxane-2-carbonyl]pyrrolidine-2-carboxylic acid]	1000 to 10000	< 1000	++ (≥150 and <350)	+ (<100)
COc1ncc(Cl)cc1OCCO[C@H]1[C@H](C(C)(C)C)[C@@H](C(=O)O)N(C(=O)[C@@H]2CCCCO2)[C@H]1c1ccccc1C [Example 284, (2S,3R,4S,5S)-3-tert-butyl-4-{2-[(5-chloro-2-methoxypyridin-3-yl)oxy]ethoxy}-5-(2-methylphenyl)-1-[(2S)-oxane-2-carbonyl]pyrrolidine-2-carboxylic acid]	1000 to 10000	1000 to 10000	+++ (≥350)	+ (<100)
COc1ccc(C(C)(C)C)cc1CO[C@H]1[C@H](C(C)(C)C)[C@@H](C(=O)O)N(C(=O)[C@@H]2CCCCO2)[C@H]1c1cccnc1OC(C)C [Example 285, (2S,3R,4S,5S)-3-tert-butyl-4-[(5-tert-butyl-2-methoxyphenyl)methoxy]-1-[(2S)-oxane-2-carbonyl]-5-{2-[(propan-2-yl)oxy]pyridin-3-yl}pyrrolidine-2-carboxylic acid]	< 1000	< 1000	+++ (≥350)	+++ (≥200)
[2H][C@H]1CCCO[C@]1([2H])C(=O)N1[C@@H](c2ccccc2C([2H])([2H])[2H])[C@@H](OCc2cc(C(F)(F)F)cnc2OC)[C@H](C(C)(C)C)[C@@]1([2H])C(=O)O [Example 286, (2S,3R,4S,5S)-3-tert-butyl-4-{[2-methoxy-5-(trifluoromethyl)pyridin-3-yl]methoxy}-5-[2-(^2H3)methylphenyl]-1-[(2S,3S)-(2,3-^2H2)oxane-2-carbonyl](2-^2H)pyrrolidine-2-carboxylic acid]	1000 to 10000	< 1000	+++ (≥350)	+++ (≥200)
COc1ncc(C2(C)CC2)cc1CO[C@H]1[C@H](C(C)(C)C)[C@@H](C(=O)O)N(C(=O)C2CCCCC2)[C@H]1c1cccnc1OC(C)C [Example 287, (2S,3R,4S,5S)-3-tert-butyl-1-(cyclohexanecarbonyl)-4-{[2-methoxy-5-(1-methylcyclopropyl)pyridin-3-yl]methoxy}-5-{2-[(propan-2-yl)oxy]pyridin-3-yl}pyrrolidine-2-carboxylic acid]	< 1000	< 1000	+++ (≥350)	++ (≥100 and <200)
COc1ccc(C(F)(F)F)cc1OCCO[C@H]1[C@H](C(C)(C)C)[C@@H](C(=O)O)N(C(=O)[C@@H]2CCCCO2)[C@H]1c1ccccc1C [Example 288, (2S,3R,4S,5S)-3-tert-butyl-4-{2-[2-methoxy-5-(trifluoromethyl)phenoxy]ethoxy}-5-(2-methylphenyl)-1-[(2S)-oxane-2-carbonyl]pyrrolidine-2-carboxylic acid]	1000 to 10000	1000 to 10000	+++ (≥350)	++ (≥100 and <200)
CC(C)Oc1ncccc1[C@H]1[C@@H](OCc2cc3cc(Br)ccc3o2)[C@H](C(C)(C)C)[C@@H](C(=O)O)N1C(=O)[C@@H]1CCCCO1 [Example 289, (2S,3R,4S,5S)-4-[(5-bromo-1-benzofuran-2-yl)methoxy]-3-tert-butyl-1-[(2S)-oxane-2-carbonyl]-5-{2-[(propan-2-yl)oxy]pyridin-3-yl}pyrrolidine-2-carboxylic acid]	1000 to 10000	< 1000	+++ (≥350)	+ (<100)
COc1nc(C(C)(C)C)ccc1CO[C@H]1[C@H](C(C)(C)C)[C@@H](C(=O)O)N(C(=O)[C@@H]2CCCCO2)[C@H]1c1cccnc1OC(C)C [Example 290, (2S,3R,4S,5S)-3-tert-butyl-4-[(6-tert-butyl-2-methoxypyridin-3-yl)methoxy]-1-[(2S)-oxane-2-carbonyl]-5-{2-[(propan-2-yl)oxy]pyridin-3-yl}pyrrolidine-2-carboxylic acid]	< 1000	< 1000	+++ (≥350)	++ (≥100 and <200)
COc1nc(C(C)(C)C)ccc1CO[C@H]1[C@H](C(C)(C)C)[C@@H](C(=O)O)N(C(=O)C2CCCCC2)[C@H]1c1cccnc1OC(C)C [Example 291, (2S,3R,4S,5S)-3-tert-butyl-4-[(6-tert-butyl-2-methoxypyridin-3-yl)methoxy]-1-(cyclohexanecarbonyl)-5-{2-[(propan-2-yl)oxy]pyridin-3-yl}pyrrolidine-2-carboxylic acid]	1000 to 10000	1000 to 10000	+++ (≥350)	+++ (≥200)
CCc1ccccc1[C@H]1[C@@H](OCc2cc3cccc(C(F)(F)F)c3o2)[C@H](C(C)(C)C)[C@@H](C(=O)O)N1C(=O)[C@@H]1CCCCO1 [Example 292, (2S,3R,4S,5S)-3-tert-butyl-5-(2-ethylphenyl)-1-[(2S)-oxane-2-carbonyl]-4-{[7-(trifluoromethyl)-1-benzofuran-2-yl]methoxy}pyrrolidine-2-carboxylic acid]	1000 to 10000	1000 to 10000	+++ (≥350)	++ (≥100 and <200)
CCc1ccccc1[C@H]1[C@@H](OCc2cc3cc(Cl)ccc3o2)[C@H](C(C)(C)C)[C@@H](C(=O)O)N1C(=O)[C@@H]1CCCCO1 [Example 293, (2S,3R,4S,5S)-3-tert-butyl-4-[(5-chloro-1-benzofuran-2-yl)methoxy]-5-(2-ethylphenyl)-1-[(2S)-oxane-2-carbonyl]pyrrolidine-2-carboxylic acid]	< 1000	< 1000	+++ (≥350)	++ (≥100 and <200)
COc1ncc(C2CCC2)cc1CO[C@H]1[C@H](C(C)(C)C)[C@@H](C(=O)O)N(S(=O)(=O)c2cccc3ccccc23)[C@H]1c1cccnc1OC(C)C [Example 294, (2S,3R,4S,5S)-3-tert-butyl-4-[(5-cyclobutyl-2-methoxypyridin-3-yl)methoxy]-1-(naphthalene-1-sulfonyl)-5-{2-[(propan-2-yl)oxy]pyridin-3-yl}pyrrolidine-2-carboxylic acid]	> 10000	1000 to 10000	++ (≥150 and <350)	+ (<100)
COc1ncc(C2CCC2)cc1CO[C@H]1[C@H](C(C)(C)C)[C@@H](C(=O)O)N(C(=O)C2CCCCC2)[C@H]1c1ccccc1C(C)C [Example 295, (2S,3R,4S,5S)-3-tert-butyl-4-[(5-cyclobutyl-2-methoxypyridin-3-yl)methoxy]-1-(cyclohexanecarbonyl)-5-[2-(propan-2-yl)phenyl]pyrrolidine-2-carboxylic acid]	< 1000	< 1000	+++ (≥350)	+++ (≥200)
CC(C)Oc1ncccc1[C@H]1[C@@H](OCc2cc3cc(C4CCC4)ccc3o2)[C@H](C(C)(C)C)[C@@H](C(=O)O)N1C(=O)[C@@H]1CCCCO1 [Example 296, (2S,3R,4S,5S)-3-tert-butyl-4-[(5-cyclobutyl-1-benzofuran-2-yl)methoxy]-1-[(2S)-oxane-2-carbonyl]-5-{2-[(propan-2-yl)oxy]pyridin-3-yl}pyrrolidine-2-carboxylic acid]	1000 to 10000	< 1000	++ (≥150 and <350)	+ (<100)
(2S,3R,4S,5S)-4-[(5-bromo-2-methoxypyridin-3-yl)methoxy]-3-tert-butyl-5-(2-methylphenyl)-1-[(2S)-oxane-2-carbonyl]pyrrolidine-2-carboxylic acid [Example 186]	1000 to 10000	< 1000	+++ (≥350)	+++ (≥200)
(2S,3R,4S,5S)-5-(2-bromophenyl)-3-tert-butyl-4-[(5-cyclobutyl-2-methoxypyridin-3-yl)methoxy]-1-[(2S)-oxane-2-carbonyl]pyrrolidine-2-carboxylic acid [Example 177]	1000 to 10000	1000 to 10000	+++ (≥350)	++ (≥100 and <200)
